Where “and” joins values, the source holds several entries; their conditions need not be identical. Equal values may be shown once.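 In this assay, cells in 96-well plates receive the compound at five concentrations for 48 hours. Endpoints are linearly interpolated between the surrounding concentrations. Abbreviation: GI50, concentration required for 50% inhibition of growth. Definition used: TGI = concentration required for complete inhibition of growth.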
Experiments:
Test in all cases: NCI-60 cell line screen, 48 h
SK-OV-3 ovarian = system: SK-OV-3 ovarian
OVCAR-5 ovarian = system: OVCAR-5 ovarian
SN12C renal = system: SN12C renal
SK-MEL-5 melanoma = system: SK-MEL-5 melanoma
HOP-92 NSCLC = system: HOP-92 NSCLC
HCT-15 colon = system: HCT-15 colon
EKVX NSCLC = system: EKVX NSCLC
IGROV1 ovarian = system: IGROV1 ovarian
MALME-3M melanoma = system: MALME-3M melanoma
COLO 205 colon = system: COLO 205 colon
SF-295 CNS = system: SF-295 CNS
DMS 114 small cell lung = system: DMS 114 small cell lung
HOP-18 NSCLC = system: HOP-18 NSCLC
HT29 colon = system: HT29 colon
NCI-H226 lung = system: NCI-H226 lung
LXFL 529 NSCLC = system: LXFL 529 NSCLC
OVCAR-3 ovarian = system: OVCAR-3 ovarian
ACHN renal = system: ACHN renal
SF-268 CNS = system: SF-268 CNS
RPMI-8226 leukemia = system: RPMI-8226 leukemia
OVCAR-4 ovarian = system: OVCAR-4 ovarian
HCT-116 colon = system: HCT-116 colon
MOLT-4 leukemia = system: MOLT-4 leukemia
UACC-257 melanoma = system: UACC-257 melanoma
SNB-75 CNS = system: SNB-75 CNS
SK-MEL-2 melanoma = system: SK-MEL-2 melanoma
KM12 colon = system: KM12 colon
DLD-1 colon = system: DLD-1 colon
SNB-78 CNS = system: SNB-78 CNS
CCRF-CEM leukemia = system: CCRF-CEM leukemia
KM20L2 colon = system: KM20L2 colon
LOX IMVI melanoma = system: LOX IMVI melanoma
U251 CNS = system: U251 CNS
HOP-62 NSCLC = system: HOP-62 NSCLC
RXF 393 renal = system: RXF 393 renal
CAKI-1 renal = system: CAKI-1 renal
M19-MEL melanoma = system: M19-MEL melanoma
XF 498 CNS = system: XF 498 CNS
UACC-62 melanoma = system: UACC-62 melanoma
A549 NSCLC = system: A549 NSCLC
786-0 renal = system: 786-0 renal
NCI-H522 lung = system: NCI-H522 lung
SR leukemia = system: SR leukemia
SW-620 colon = system: SW-620 colon
A498 renal = system: A498 renal
UO-31 renal = system: UO-31 renal
NCI-H460 lung = system: NCI-H460 lung
SK-MEL-28 melanoma = system: SK-MEL-28 melanoma
NCI-H23 lung = system: NCI-H23 lung
TK-10 renal = system: TK-10 renal
SNB-19 CNS = system: SNB-19 CNS
M14 melanoma = system: M14 melanoma
HCC-2998 colon = system: HCC-2998 colon
K-562 leukemia = system: K-562 leukemia
OVCAR-8 ovarian = system: OVCAR-8 ovarian
HL-60(TB) leukemia = system: HL-60(TB) leukemia
DMS 273 small cell lung = system: DMS 273 small cell lung
SF-539 CNS = system: SF-539 CNS

With `COc1cc(CNc2ccc(C)cc2)cc(OC)c1OC` the TGI (SK-OV-3 ovarian) was 0.825 µM and 1.3 µM, the TGI (OVCAR-5 ovarian) was > 100 µM and the GI50 (SN12C renal) was 0.585 µM and 3.71 µM. For the same compound, the TGI (SN12C renal) was > 87.6 µM, the TGI (SK-MEL-5 melanoma) was > 100 µM and the TGI (HOP-92 NSCLC) was > 100 µM. For the same compound, the GI50 (HCT-15 colon) was 0.1 µM and 0.275 µM, the TGI (HCT-15 colon) was 9.02 µM and > 37.2 µM and the TGI (EKVX NSCLC) was > 100 µM. For the same compound, the TGI (IGROV1 ovarian) was > 100 µM, the GI50 (MALME-3M melanoma) was 0.276 µM and 0.658 µM and the TGI (MALME-3M melanoma) was > 100 µM. The TGI (COLO 205 colon) was 0.385 µM and 1.11 µM, the GI50 (SF-295 CNS) was 0.155 µM and 0.333 µM and the TGI (SF-295 CNS) was 0.439 µM. For the same compound, the TGI (DMS 114 small cell lung) was 0.981 µM and 3.08 µM, the GI50 (HOP-18 NSCLC) was 17.8 µM and > 60.8 µM and the TGI (HOP-18 NSCLC) was > 100 µM. The GI50 (HT29 colon) was 0.156 µM, the TGI (HT29 colon) was 0.852 µM and the GI50 (NCI-H226 lung) was 0.284 µM and 0.72 µM. For the same compound, the TGI (LXFL 529 NSCLC) was > 100 µM, the TGI (OVCAR-3 ovarian) was 0.597 µM and the GI50 (ACHN renal) was 0.674 µM and 0.216 µM. For the same compound, the TGI (ACHN renal) was > 100 µM, the TGI (SF-268 CNS) was > 90.3 µM and the TGI (RPMI-8226 leukemia) was > 50.2 µM. For the same compound, the TGI (OVCAR-4 ovarian) was > 100 µM, the GI50 (HCT-116 colon) was 0.333 µM and 0.816 µM and the TGI (MOLT-4 leukemia) was > 100 µM. The TGI (UACC-257 melanoma) was > 100 µM, the TGI (SNB-75 CNS) was > 100 µM and the TGI (SK-MEL-2 melanoma) was > 100 µM. For the same compound, the GI50 (KM12 colon) was 0.104 µM and 0.341 µM, the TGI (KM12 colon) was 2.33 µM and the TGI (DLD-1 colon) was > 100 µM. The TGI (SNB-78 CNS) was > 100 µM, the TGI (CCRF-CEM leukemia) was > 83.6 µM and the TGI (KM20L2 colon) was 0.447 µM and 0.939 µM. The TGI (LOX IMVI melanoma) was > 100 µM, the TGI (U251 CNS) was 1.2 µM and the TGI (HOP-62 NSCLC) was > 100 µM. For the same compound, the GI50 (RXF 393 renal) was 0.239 µM, the GI50 (CAKI-1 renal) was 0.235 µM and 0.0641 µM and the TGI (CAKI-1 renal) was > 100 µM. For the same compound, the TGI (M19-MEL melanoma) was > 100 µM, the GI50 (XF 498 CNS) was 1.98 µM and the TGI (XF 498 CNS) was > 100 µM. The GI50 (UACC-62 melanoma) was 0.12 µM and 0.57 µM, the TGI (UACC-62 melanoma) was > 100 µM and the TGI (A549 NSCLC) was > 100 µM. The TGI (786-0 renal) was > 44.9 µM, the TGI (NCI-H522 lung) was 0.435 µM and 0.83 µM and the TGI (SR leukemia) was > 100 µM. The GI50 (SW-620 colon) was 0.203 µM, the GI50 (A498 renal) was > 37.5 µM and the TGI (A498 renal) was > 74.2 µM. For the same compound, the TGI (UO-31 renal) was > 100 µM, the TGI (NCI-H460 lung) was > 23.8 µM and 3.92 µM and the GI50 (SK-MEL-28 melanoma) was 0.525 µM. For the same compound, the TGI (SK-MEL-28 melanoma) was > 100 µM, the TGI (NCI-H23 lung) was 3.08 µM and the GI50 (TK-10 renal) was 4.28 µM. The TGI (TK-10 renal) was > 100 µM, the GI50 (SNB-19 CNS) was 0.959 µM and the TGI (SNB-19 CNS) was > 100 µM. For the same compound, the GI50 (M14 melanoma) was 0.124 µM, the TGI (M14 melanoma) was > 100 µM and the GI50 (HCC-2998 colon) was 0.124 µM and 0.365 µM. For the same compound, the TGI (HCC-2998 colon) was 1.16 µM and 2.48 µM and the TGI (K-562 leukemia) was > 42.3 µM and 25 µM.
For `O=[N+]([O-])C(=C1c2ccccc2-c2ccccc21)[N+](=O)[O-]`, the TGI (OVCAR-5 ovarian) was > 100 µM, the TGI (SN12C renal) was > 100 µM and the TGI (HCT-15 colon) was > 10 µM. The TGI (EKVX NSCLC) was > 100 µM, the TGI (IGROV1 ovarian) was > 100 µM and the TGI (OVCAR-8 ovarian) was > 100 µM. The TGI (COLO 205 colon) was > 100 µM, the TGI (SF-295 CNS) was > 10 µM and the TGI (HT29 colon) was > 100 µM. For the same compound, the TGI (NCI-H226 lung) was > 100 µM, the TGI (LXFL 529 NSCLC) was > 100 µM and the TGI (OVCAR-3 ovarian) was > 100 µM. The TGI (ACHN renal) was > 100 µM, the TGI (SF-268 CNS) was 84.8 µM and the TGI (RPMI-8226 leukemia) was > 100 µM. The TGI (OVCAR-4 ovarian) was > 100 µM, the TGI (HCT-116 colon) was > 100 µM and the TGI (MOLT-4 leukemia) was > 100 µM. The TGI (HL-60(TB) leukemia) was 98.9 µM, the TGI (UACC-257 melanoma) was > 100 µM and the TGI (SK-MEL-2 melanoma) was > 100 µM. The TGI (KM12 colon) was > 100 µM, the TGI (SNB-78 CNS) was > 100 µM and the TGI (CCRF-CEM leukemia) was > 100 µM. For the same compound, the TGI (KM20L2 colon) was > 100 µM, the TGI (LOX IMVI melanoma) was > 100 µM and the TGI (U251 CNS) was > 100 µM. For the same compound, the TGI (HOP-62 NSCLC) was > 100 µM, the TGI (RXF 393 renal) was > 100 µM and the TGI (CAKI-1 renal) was > 100 µM. The TGI (UACC-62 melanoma) was > 100 µM, the TGI (A549 NSCLC) was > 100 µM and the TGI (DMS 273 small cell lung) was > 10 µM. For the same compound, the TGI (SF-539 CNS) was > 100 µM, the TGI (786-0 renal) was > 100 µM and the TGI (NCI-H522 lung) was > 100 µM. For the same compound, the TGI (SR leukemia) was > 100 µM, the TGI (SW-620 colon) was > 100 µM and the TGI (A498 renal) was > 100 µM. For the same compound, the TGI (UO-31 renal) was > 100 µM, the TGI (NCI-H460 lung) was > 100 µM and the TGI (SK-MEL-28 melanoma) was > 100 µM. For the same compound, the TGI (NCI-H23 lung) was > 10 µM, the TGI (TK-10 renal) was > 100 µM and the TGI (SNB-19 CNS) was > 100 µM. The TGI (M14 melanoma) was > 100 µM, the TGI (HCC-2998 colon) was > 100 µM and the TGI (K-562 leukemia) was > 100 µM.
